Data taken from US20230133958A1, “COMPOUNDS USEFUL IN MODULATING EGFR AND PI3K” (Mekanistic Therapeutics LLC, priority 2021, published 2023).

Columns and labels:
PI3Kβ = PI3Kβ (Homo sapiens, UniProt P42338); assay: Z'-LYTE / Adapta biochemical kinase assay, PI3Kβ
Excerpt: (§1) The Z′-LYTE® biochemical assay employs a fluorescence-based, coupled-enzyme format and is based on the differential sensitivity of phosphorylated and non-phosphorylated peptides to proteolytic cleavage. The peptide substrate is labeled with two fluorophores—one at each end—that make up a FRET pair. In the primary reaction, the kinase transfers the gamma-phosphate of ATP to a single tyrosine, serine or threonine residue in a synthetic FRET-peptide. In the secondary reaction, a site-specific protease recognizes and cleaves non-phosphorylated FRET-peptides. Phosphorylation of FRET-peptides suppresses cleavage by the Development Reagent. […] A ratiometric method, which calculates the ratio (the Emission Ratio) of donor emission to acceptor emission after excitation of the donor fluorophore at 400 nm, is used to quantitate reaction progress.
(§2) A significant benefit of this ratiometric method for quantitating reaction progress is the elimination of well-to-well variations in FRET-peptide concentration and signal intensities. […]
(§3) Both cleaved and uncleaved FRET-peptides contribute to the fluorescence signals and therefore to the Emission Ratio. The extent of phosphorylation of the FRET-peptide can be calculated from the Emission Ratio. […]

MTOR = MTOR (Homo sapiens, UniProt P42345); assay: Z'-LYTE / Adapta biochemical kinase assay, MTOR
Excerpt: as §1, §2, §3

P13Kγ = P13Kγ (Homo sapiens, UniProt P48736); assay: Z'-LYTE / Adapta biochemical kinase assay, PI3Kγ
Chain of P13Kγ (P48736 whole entry, stated change not applied): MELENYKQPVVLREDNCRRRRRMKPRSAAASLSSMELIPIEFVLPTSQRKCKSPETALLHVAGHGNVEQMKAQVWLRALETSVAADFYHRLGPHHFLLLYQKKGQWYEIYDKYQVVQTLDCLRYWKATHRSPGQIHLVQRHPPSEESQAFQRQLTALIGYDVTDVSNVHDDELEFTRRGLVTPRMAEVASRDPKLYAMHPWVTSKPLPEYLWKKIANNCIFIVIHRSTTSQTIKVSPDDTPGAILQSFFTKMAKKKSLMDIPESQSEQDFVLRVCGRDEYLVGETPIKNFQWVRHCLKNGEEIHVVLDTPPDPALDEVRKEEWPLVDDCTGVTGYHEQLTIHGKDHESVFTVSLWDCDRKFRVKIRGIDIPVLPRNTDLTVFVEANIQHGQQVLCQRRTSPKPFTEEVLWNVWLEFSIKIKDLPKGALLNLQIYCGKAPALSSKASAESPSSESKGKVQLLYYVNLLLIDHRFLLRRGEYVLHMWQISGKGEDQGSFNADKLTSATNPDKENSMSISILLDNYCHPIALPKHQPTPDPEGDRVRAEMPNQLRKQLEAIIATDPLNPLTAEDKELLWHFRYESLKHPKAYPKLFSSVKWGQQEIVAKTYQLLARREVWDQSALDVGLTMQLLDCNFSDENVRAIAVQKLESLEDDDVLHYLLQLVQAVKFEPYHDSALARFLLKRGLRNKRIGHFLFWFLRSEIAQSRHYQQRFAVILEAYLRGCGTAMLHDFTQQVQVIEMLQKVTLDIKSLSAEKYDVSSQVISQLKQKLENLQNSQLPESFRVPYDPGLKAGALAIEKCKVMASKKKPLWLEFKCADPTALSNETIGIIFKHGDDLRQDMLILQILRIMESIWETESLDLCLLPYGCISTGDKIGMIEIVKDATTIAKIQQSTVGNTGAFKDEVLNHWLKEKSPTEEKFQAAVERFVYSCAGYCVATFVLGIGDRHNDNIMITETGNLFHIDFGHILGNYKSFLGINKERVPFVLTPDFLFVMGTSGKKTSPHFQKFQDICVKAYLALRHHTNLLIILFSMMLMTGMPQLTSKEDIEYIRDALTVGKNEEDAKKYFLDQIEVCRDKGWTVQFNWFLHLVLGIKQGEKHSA
Excerpt: as §1, §2, §3

Chain of PI3Kβ (P42338 whole entry): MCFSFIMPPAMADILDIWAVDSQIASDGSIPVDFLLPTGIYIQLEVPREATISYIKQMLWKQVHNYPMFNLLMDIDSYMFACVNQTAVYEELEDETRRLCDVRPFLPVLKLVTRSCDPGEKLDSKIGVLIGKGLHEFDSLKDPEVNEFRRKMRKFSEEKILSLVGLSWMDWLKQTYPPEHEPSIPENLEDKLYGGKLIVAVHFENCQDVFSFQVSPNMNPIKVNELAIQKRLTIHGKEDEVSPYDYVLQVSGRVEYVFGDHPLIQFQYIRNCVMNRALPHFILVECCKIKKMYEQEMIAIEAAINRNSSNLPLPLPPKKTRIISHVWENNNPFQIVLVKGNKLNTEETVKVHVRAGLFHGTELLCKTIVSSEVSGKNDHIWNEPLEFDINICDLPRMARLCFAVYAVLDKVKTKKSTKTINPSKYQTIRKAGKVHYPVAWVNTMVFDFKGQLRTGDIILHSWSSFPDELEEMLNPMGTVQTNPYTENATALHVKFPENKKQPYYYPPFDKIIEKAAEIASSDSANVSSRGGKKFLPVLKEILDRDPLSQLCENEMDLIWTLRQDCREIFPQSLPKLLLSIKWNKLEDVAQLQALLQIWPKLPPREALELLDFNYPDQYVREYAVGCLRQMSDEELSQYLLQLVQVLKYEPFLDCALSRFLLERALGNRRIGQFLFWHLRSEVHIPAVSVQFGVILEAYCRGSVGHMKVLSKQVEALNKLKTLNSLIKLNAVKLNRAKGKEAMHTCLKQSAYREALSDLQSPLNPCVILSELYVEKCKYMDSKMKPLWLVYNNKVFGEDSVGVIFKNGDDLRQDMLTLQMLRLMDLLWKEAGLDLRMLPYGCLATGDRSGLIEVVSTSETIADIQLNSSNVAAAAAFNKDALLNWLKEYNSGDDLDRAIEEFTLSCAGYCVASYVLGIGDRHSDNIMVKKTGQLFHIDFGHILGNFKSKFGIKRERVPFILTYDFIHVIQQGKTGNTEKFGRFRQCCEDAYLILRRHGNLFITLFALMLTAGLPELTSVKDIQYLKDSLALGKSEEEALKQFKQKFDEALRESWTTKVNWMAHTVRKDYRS
Chain of PI3Kβ (P27986 whole entry partner): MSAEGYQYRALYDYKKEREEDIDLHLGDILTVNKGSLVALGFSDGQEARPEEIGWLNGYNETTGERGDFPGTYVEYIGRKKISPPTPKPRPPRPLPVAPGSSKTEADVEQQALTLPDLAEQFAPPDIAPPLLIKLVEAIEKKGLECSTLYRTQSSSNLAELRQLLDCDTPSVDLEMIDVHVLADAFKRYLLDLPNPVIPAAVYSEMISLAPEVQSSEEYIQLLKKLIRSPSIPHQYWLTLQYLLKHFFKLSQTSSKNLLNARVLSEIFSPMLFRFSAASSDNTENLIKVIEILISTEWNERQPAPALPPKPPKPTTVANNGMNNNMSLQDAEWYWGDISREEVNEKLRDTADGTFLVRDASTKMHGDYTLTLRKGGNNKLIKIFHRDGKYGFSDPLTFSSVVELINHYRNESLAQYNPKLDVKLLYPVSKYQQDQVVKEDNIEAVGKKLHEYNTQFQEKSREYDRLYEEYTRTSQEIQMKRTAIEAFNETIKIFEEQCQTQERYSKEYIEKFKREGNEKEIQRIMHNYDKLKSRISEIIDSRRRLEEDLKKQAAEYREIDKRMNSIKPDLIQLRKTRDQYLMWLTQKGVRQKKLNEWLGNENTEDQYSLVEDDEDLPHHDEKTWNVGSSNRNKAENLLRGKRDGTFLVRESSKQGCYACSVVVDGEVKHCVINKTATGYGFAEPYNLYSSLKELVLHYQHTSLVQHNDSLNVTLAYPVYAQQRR

CS(=O)(=O)Nc1cc(-c2ccc3ncnc(Nc4cccc(Cl)c4F)c3c2)cnc1Cl [Compound 6, N-[2-chloro-5-[4-(3-chloro-2-fluoro-anilino)quinazolin-6-yl]-3-pyridyl] methanesulfonamide] was tested, and the IC50 (PI3Kβ) was 0.02 to 0.2 µM, the IC50 (MTOR) was 0.002 to 0.02 µM and the IC50 (P13Kγ) was no more than 0.002 µM.
